Experimental data published in US10450299B2, “Substituted quinazoline derivatives as DNA methyltransferase inhibitors” (Pierre Fabre Medicament, priority 2015, dated 2019).

Legend:
[1] = tested on: KG-1 human leukemia cells; test: Anti-proliferative activity on KG-1 (ATPLite cell viability); assay type: cell-based; conditions: KG-1 cells
Protocol: Anti-Proliferative Activity. (on KG-1)
KG-1 human leukemia cells were obtained from the ATCC (USA) and cultivated in RPMI 1640 medium (with HEPES and Glutamine, BE12-115F, Lonza, France) supplemented with, respectively, 20% and 15% foetal calf serum (Lonza, France), at 37° C. and under 5% CO2. To measure the anti-proliferative properties of tested molecules, 2×10^4 cells are seeded at day 0 in a 96 wells plate. The compounds to be tested, stored at −20° C. as 10^−2 M stock solution in 100% DMSO, are freshly diluted on day 1 in RPMI 1640 medium, before adding a dose range of 3.2 nM to 10 μM to the cells. This treatment is repeated on day 2 and 3, and on day 4 cell viability is assessed using the ATPLite™ kit from Perkin (ATPlite™ 1 Step Luminescence Assay System, ref 3016739), following the provider instructions. The raw data are analyzed with GraphPad Prism software (v4.03) to generate EC50 values corresponding to the compound concentrations giving 50% reduction in cell viability. The values presented are the mean results of at least two independent experiments. […]
At the end of the experiment, cell viability was evaluated by determining the level of ATP released by viable cells.
EC50 values were determined with curve fitting analysis method (non linear regression model with a sigmoid dose response, variable Hill slope coefficient) provided by the Prism Software (GraphPad). Results were expressed as average EC50 values (concentration of tested compound that inhibits 50% of the maximum effect for the considered compound).

[2] = molecular target: T1, His-DNMT1 (182 kDa, human) (Homo sapiens, UniProt P26358); test: DNMT1 assay (tritiated SAM Flashplate methylation assay); assay type: biochemical
T1 construct: His; made in house
Protocol: His-DNMT1 (182 kDa, human) was cloned, expressed and purified as described in Halby et al. (ChemBioChem 2012, 13, 157-65). The reaction was performed in a 10 μL total reaction volume in low volume NBS™ 384-well microplates (Corning), containing the tested compound (up to 1% DMSO), 1 μM of a SAM/[methyl-^3H] SAM (3 TBq/mmol, PerkinElmer) mix in a ratio of 3-to-1 (isotopic dilution 1*:3), 0.3 μM of biotinylated hemimethylated DNA duplex (5′-GATmCGCmCGATGmCGmCGAATmCGmCGATmCGATGmCGAT-3′ and BIOT-5′-[…]-3′), and 90 nM of DNMT1 in methylation buffer (20 mM HEPES pH 7.2, 1 mM EDTA, 50 mM KCl, 25 μg/mL BSA). The reaction was incubated at 37° C. for 2 hours. 8 μL are then transferred into a streptavidin 96-well scintillant coated Flashplate™ (PerkinElmer) containing 190 μL of 20 μM SAH in 50 mM Tris-HCl pH 7.4. The Flashplate™ was agitated at room temperature for 1 hour, washed three times with 200 μL of 0.05% Tween®-20 in 50 mM Tris-HCl pH 7.4, and read in 200 μL of 50 mM Tris-HCl pH 7.4 on TopCount NXT™ (PerkinElmer).

[3] = tested on: luciferase reporter gene under the control of the partially methylated CMV promoter in KG-1 cell line; test: Gene expression (CMV-Luc reactivation) in KG-1 cells; assay type: cell-based, human; conditions: 24 h, induction factor vs DMSO control, mean of 3 experiments ± standard error
Protocol: Gene Expression. (CMV-Luc Reactivation)
KG-1 cell line, stably transfected with the luciferase Firefly (Luc+ from pGL3 by Promega) reporter gene under the control of the CMV promoter (from pEGFP-N1 by Clontech) partially methylated (50%), is seeded at 20,000 cell per well in 96-well plate. After 24 h of incubation in the presence of the compounds or the solvant DMSO, the induction of the promoter is measured by quantification of luciferase with the Brite-lite™ assay system (Perkin Elmer) according to the manufacturer protocol. The luminescence is measured on EnVision™ Multilabel Plate Reader (Perkin Elmer) and the data are expressed in induction factor compared to the DMSO control condition.

[4] = molecular target: T2, human C-terminal DNMT3A (a.a. 623-908) (Homo sapiens, UniProt Q9Y6K1); test: DNMT3A assay (restriction-based fluorescence assay); assay type: biochemical
T2 construct: The human C-terminal DNMT3A (a.a. 623-908); made in house
Excerpt: DNMT3A enzyme inhibition was adapted from the restriction-based fluorescence assay protocol described in Ceccaldi et al. (ChemBioChem 2011, 12, 1337-45). Briefly, a 5′-labelled biotin oligonucleotide is hybridized to its complementary strand labelled with 6-carboxyfluorescein at the 3′-end into a 384 well microplate (black Optiplates; Perkin Elmer) pre-coated with avidin. The duplex contains a unique CpG site overlapping with a restriction site of a methylation sensitive restriction enzyme. The human C-terminal DNMT3A (a.a. 623-908), produced as described in Gros et al. (Nucleic Acids Research 2013 41(19):e185), was added in each well (200 ng/well) and mixed with the chemical compounds at desired concentrations and freshly prepared AdoMet (20 μM final concentration) to start the reaction in a total volume of 50 μL. After 1 hour incubation at 37° C. each well were washed three times with PBS, Tween-20 0.05%, NaCl (500 mM) and three more times with PBST. Specific fluorescent signals were detected with the methylation-sensitive restriction enzyme HpyCH4IV (NEB) as described and measured on a Perkin Elmer Envision detector. The percentage of inhibition is reported. The formula used to calculate the percentage of inhibition is [(X−Y)/X]×100, where X is the signal determined in the absence of the inhibitor and Y is the signal obtained in the presence of the inhibitor. The concentration at which 50% of efficacy of inhibition is observed (EC50) was determined by analysis of a concentration range of the tested compound in triplicates. The non-linear regression fittings with sigmoidal dose-response (variable slope) were performed with GraphPad Prism 4.03 (GraphPad Software).

T1 sequence (P26358 whole entry): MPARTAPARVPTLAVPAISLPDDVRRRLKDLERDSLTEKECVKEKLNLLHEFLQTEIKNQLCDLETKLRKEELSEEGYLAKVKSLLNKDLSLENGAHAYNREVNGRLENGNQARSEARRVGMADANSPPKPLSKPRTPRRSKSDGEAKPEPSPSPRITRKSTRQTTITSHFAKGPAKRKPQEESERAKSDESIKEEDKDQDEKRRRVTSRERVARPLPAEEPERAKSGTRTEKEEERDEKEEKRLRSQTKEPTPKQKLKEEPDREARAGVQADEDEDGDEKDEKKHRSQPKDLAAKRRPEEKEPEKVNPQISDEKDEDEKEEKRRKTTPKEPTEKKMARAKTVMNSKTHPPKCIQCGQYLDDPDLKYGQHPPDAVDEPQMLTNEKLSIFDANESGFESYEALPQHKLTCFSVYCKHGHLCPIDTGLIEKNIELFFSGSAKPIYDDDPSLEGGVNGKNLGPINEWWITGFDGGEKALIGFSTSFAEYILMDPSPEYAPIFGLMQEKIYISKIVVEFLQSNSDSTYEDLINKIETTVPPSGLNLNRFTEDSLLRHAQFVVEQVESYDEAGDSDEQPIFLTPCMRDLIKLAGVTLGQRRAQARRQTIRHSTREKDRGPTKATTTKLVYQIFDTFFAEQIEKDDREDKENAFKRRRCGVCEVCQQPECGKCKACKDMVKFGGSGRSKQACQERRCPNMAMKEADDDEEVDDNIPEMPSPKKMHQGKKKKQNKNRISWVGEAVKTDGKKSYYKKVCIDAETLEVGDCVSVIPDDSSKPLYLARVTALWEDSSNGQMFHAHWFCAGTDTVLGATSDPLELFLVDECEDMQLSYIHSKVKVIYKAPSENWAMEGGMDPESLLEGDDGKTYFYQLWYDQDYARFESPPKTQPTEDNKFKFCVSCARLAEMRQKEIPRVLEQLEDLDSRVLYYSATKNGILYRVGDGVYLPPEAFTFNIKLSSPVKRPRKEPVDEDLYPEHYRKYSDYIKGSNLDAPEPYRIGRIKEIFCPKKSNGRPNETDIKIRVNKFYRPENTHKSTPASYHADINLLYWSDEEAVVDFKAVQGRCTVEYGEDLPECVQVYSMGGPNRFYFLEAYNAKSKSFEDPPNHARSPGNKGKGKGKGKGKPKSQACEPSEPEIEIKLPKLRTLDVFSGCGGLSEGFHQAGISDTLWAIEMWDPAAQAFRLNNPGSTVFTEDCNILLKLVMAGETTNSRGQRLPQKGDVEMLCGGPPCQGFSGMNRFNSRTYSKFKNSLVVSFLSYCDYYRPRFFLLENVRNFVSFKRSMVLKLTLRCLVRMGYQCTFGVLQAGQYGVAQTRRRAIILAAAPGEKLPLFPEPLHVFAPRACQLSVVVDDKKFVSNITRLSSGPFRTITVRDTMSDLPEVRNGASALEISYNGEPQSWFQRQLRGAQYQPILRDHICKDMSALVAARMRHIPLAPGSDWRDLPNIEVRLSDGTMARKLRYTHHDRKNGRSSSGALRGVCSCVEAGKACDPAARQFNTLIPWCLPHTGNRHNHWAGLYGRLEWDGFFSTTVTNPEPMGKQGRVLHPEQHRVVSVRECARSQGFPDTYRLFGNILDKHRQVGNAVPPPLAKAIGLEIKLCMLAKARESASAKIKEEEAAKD
T2 sequence (Q9Y6K1 627-912): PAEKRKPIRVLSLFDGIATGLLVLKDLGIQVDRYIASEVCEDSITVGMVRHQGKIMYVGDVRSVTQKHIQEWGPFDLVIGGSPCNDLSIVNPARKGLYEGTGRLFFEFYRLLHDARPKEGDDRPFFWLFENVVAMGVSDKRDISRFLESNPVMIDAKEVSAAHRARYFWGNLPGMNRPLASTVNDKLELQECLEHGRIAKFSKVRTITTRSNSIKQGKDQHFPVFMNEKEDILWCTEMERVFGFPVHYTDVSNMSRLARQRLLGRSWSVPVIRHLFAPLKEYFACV

Compound: COc1cc2c(NCCNc3cccc4ccccc34)nc(N3CCN(c4ccccc4)CC3)nc2cc1OCC1CCN(CCNc2ccnc3ccccc23)CC1 [F, N^1-(6-methoxy-2-(4-phenylpiperazin-1-yl)-7-((1-(2-(quinolin-4-ylamino)ethyl)piperidin-4-yl)methoxy)quinazolin-4-yl)-N^2-(naphtalen-1-yl)ethane-1,2-diamine]
- inhibition at 0.1 µM ([1]; compound at 0.1 μM, read-out: % proliferation inhibition 0.1 μM): 2%
- inhibition at 1 µM ([1]; compound at 1 μM, read-out: % proliferation inhibition 1 μM): 31.9%
- inhibition at 5 µM ([1]; compound at 5 μM, read-out: % proliferation inhibition 5 μM): 99.6%
- inhibition at 10 µM ([1]; compound at 10 μM, read-out: % proliferation inhibition 10 μM): 99.9%
- EC50 [2]: 11.7 µM
- inhibition at 10 µM ([2]; compound at 10 μM): 45%
- inhibition at 32 µM ([2]; compound at 32 μM): 93%
- Reactivation fold of luciferase gene reporter, 0.1 μM ([3]; compound at 0.1 μM): 1.1 ± 0.0 fold
- Reactivation fold of luciferase gene reporter, 1 μM ([3]; compound at 1 μM): 4.4 ± 0.4 fold
- Reactivation fold of luciferase gene reporter, 5 μM ([3]; compound at 5 μM): 1.0 ± 0.8 fold
- Reactivation fold of luciferase gene reporter, 10 μM ([3]; compound at 10 μM): 0.0 ± 0.0 fold
- inhibition at 1 µM ([4]; compound at 1 μM): 75%
- inhibition at 3.2 µM ([4]; compound at 3.2 μM): 84%
- melting point: 180 to 181 °C
